Test results as given in publication PMC4585835 (Scientific Reports, 2015).
Where a SMILES comes first, the peptide text is derived from it. [ ]: non-standard residue; d: D form. The star is where a group is joined. Stearoyl = CCCCCCCCCCCCCCCCCC(=O)*

Columns and labels:
[1] = Bleeding time test (BT) in rats; format: in vivo, rat; conditions: for increase on the bleeding time compared with the saline group: 30 min; for bleeding time (BT): 30 min after administration
Method: Bleeding time was determined as reported previously. Male SD rats (180–220 g) were divided into 6 groups (n = 8). […] Thirty minutes after the injection, bleeding was induced by tail transection of the anesthetized rat with a size 21 disposable scalpel blade 2 mm from the tail tip. The bleeding tail was wiped with filter paper every 30 s, and the bleeding time was recorded when no blood was observed on the filter paper.

rat thrombin = target: T1, rat thrombin (Rattus norvegicus, UniProt P18292); assay: Inhibition of rat thrombin-catalyzed hydrolysis of Chromozym TH; format: biochemical; conditions: 25 °C, pH 7.4
T1 construct: purchased Sigma

trypsin = target: T2, trypsin (Bos taurus, UniProt P00760); assay: Degradation mediated by trypsin (HPLC); format: in vitro ADME; conditions: trypsin (119 ng/μL) in Tris-HCl buffer, pH 8.5, 119 μg/ml trypsin, peptide 0.79 mM, 37 °C, read-out: peptide intact after incubation with trypsin
T2 construct: purchased Roche Corp (Indianapolis, USA)
T2 sequence (P00760 24-246): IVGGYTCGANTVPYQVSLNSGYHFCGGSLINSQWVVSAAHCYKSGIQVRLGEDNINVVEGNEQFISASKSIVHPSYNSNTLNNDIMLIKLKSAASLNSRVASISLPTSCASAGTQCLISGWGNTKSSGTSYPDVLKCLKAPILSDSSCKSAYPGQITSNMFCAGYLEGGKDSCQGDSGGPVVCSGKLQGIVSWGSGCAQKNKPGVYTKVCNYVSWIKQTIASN
Excerpt: The degradation of peptides mediated by trypsin can be effectively monitored by HPLC analysis. […] The detector wavelength was set at 214 nm.

[2] = target: T3, human serum albumin (HSA) (Homo sapiens, UniProt P02768); assay: Surface plasmon resonance on surface-immobilized HSA; format: binding; conditions: HBS-EP buffer, 0.1-10 μM peptide
T3 construct: purchased Calbiochem (Merck, Germany)
Method: Briefly, HSA was first immobilized on CM5 sensor chips using the standard amine coupling protocol provided by manufacturer. The carboxymethylated dextran surface was then activated by injecting 45 μL of the solution containing 0.2 M N-ethyl-N’-(3-dimethylaminopropyl) carbodiimide hydrochloride and 0.05 M N-hydroxy succinimide. Subsequently, HSA and the control antibody were dissolved in 10 mM Na-citrate solution (pH 5.0, 50 μg/ml) and then injected until the desired amount of HSA and control antibody were coupled (8000 RUs). At this point, a buffer with higher ionic strength (HBS-EP, 0.01 M Hepes, pH = 7.4, 0.15 M NaCl, 3 mM EDTA, 0.005% surfactant) was used to wash off the ligands bound non-covalently. Finally, the 1 M ethanolamine hydrochloride solution (pH 8.5) was employed to cap the free NHS esters present on the sensor surface. […] All samples were injected onto the surface of HSA and control antibody over 3 minutes at a flow rate of 30 μL/min, followed by a dissociation period of 15 min. The 2.5 μM sample was subject to this protocol twice. Sensorgrams were obtained for each peptide concentration, respectively.

IVC thrombosis = assay: Inferior vena cava (IVC) thrombosis in rats; format: in vivo, rat
Method: Specifically, a laparotomy with ligation of the IVC below the renal veins and all visible side branches was first performed. 20 min or 5 hours after the administration of peptide or saline, the thrombosis in the IVC was carefully dissected and weighted after removing blood residual.

[3] = target: T3, human serum albumin (HSA); assay: Intrinsic HSA fluorescence quenching; format: binding; conditions: HSA 5 μM, pH 7.4, 25 °C
Method: Fluorescence measurements were conducted on a Hitachi F-4500 spectrofluorometer with a slit width of 5 nm (excitation) and 5 nm (emission). All measurements were performed at 25 °C in a 1 cm path length quartz cell. Samples were excited at 280 nm and the fluorescence intensity was measured between 300–400 nm. Human serum albumin (5 μM) was dissolved in 10 mM HEPES/100 mM NaCl solution (pH 7.4), and then titrated with the stock solution of peptides prepared in the same buffer. The background fluorescence spectra were recorded and subtracted from the ones collected from the peptide-containing samples.

rat blood = assay: Coagulation time (CT) of rat blood; format: in vivo
Method: CT was obtained using the modified Dale’s method. […] Thirty min after administration, blood samples were taken from the rat vein under eye ball with glass capillaries (20 μL), which were broken after 10 s, followed by a coagulation check. The time between blood extraction and blood coagulation in each capillary was recorded as coagulation time (CT).

rat plasma = assay: Time course of APTT in rat plasma after peptide administration; format: in vivo
Method: Peptides were administrated to male SD rats (280–320 g) via tail veins. At different time points (0, 20, 40, 60, 90, 120, 180, and 240 min; or 0, 1, 2, 3, 4, 5, 8, and 12 h) after peptide injection, blood samples were collected via retroorbital vein plexus, and then mixed with 3.2% sodium citrate solution in a ratio of 9:1 (v/v). The resulting mixtures were centrifuged at 2,000 g for 15 min at 4 °C. The APTT of rat plasma was determined on a coagulation analyzer (Coatron M1, TECO, Germany) following the manual protocol. Briefly, a cuvette with 0.05 mL rat plasma was first warmed to 37 °C for 2 min, and then 0.05 mL of the warmed APTT reagent was added, followed by incubating at 37 °C for 3 min. Afterwards, 50 μL calcium chloride solution (0.25 M) was added into the cuvette, and the clotting time of plasma samples was recorded immediately with the coagulation analyser (APTT).

T3 sequence (P02768 25-609): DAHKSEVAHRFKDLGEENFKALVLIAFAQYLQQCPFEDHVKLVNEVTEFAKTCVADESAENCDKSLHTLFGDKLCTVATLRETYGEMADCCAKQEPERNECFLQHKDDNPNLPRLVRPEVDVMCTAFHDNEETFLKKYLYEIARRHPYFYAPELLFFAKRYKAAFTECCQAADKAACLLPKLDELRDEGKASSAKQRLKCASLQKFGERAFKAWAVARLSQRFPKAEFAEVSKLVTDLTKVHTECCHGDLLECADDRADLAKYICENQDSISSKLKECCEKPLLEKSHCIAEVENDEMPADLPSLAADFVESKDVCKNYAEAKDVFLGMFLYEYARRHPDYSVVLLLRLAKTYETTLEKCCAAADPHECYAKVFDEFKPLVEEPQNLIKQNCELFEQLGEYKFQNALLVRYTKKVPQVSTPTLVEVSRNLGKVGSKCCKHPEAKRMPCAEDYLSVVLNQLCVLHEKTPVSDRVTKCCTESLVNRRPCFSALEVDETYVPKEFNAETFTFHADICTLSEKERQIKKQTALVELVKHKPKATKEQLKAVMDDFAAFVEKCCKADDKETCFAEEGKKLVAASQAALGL

## CCCCCCCCCCCCCCCCCC(=O)NCCCC[C@H](NC(=O)CNC(=O)[C@@H]1CCCN1C(=O)[C@H](CCCNC(=N)N)NC(=O)[C@@H]1CCCN1C(=O)[C@H](N)Cc1ccccc1)C(=O)NCC(=O)NCC(=O)N[C@@H](CCC(N)=O)C(=O)NCC(=O)N[C@@H](CC(=O)O)C(=O)N[C@@H](Cc1ccccc1)C(=O)N[C@@H](CCC(=O)O)C(=O)N1CCC[C@H]1C(=O)N[C@H](C(=O)N1CCC[C@H]1C(=O)N[C@@H](CCC(=O)O)C(=O)N[C@@H](CC(=O)O)C(=O)N[C@@H](C)C(=O)N[C@@H](Cc1ccc(O)cc1)C(=O)N[C@@H](CC(=O)O)C(=O)N[C@@H](CCC(=O)O)C(N)=O)[C@@H](C)CC [Peptide S2] (H-[dF]PRPGK(Stearoyl)GGQGDFEPIPEDAYDE-NH2; N-terminus assumed)
[1]; 0.5 mg/kg
  increase on the bleeding time compared with the saline group: 29.03%
  bleeding time (BT): 300.00 ± 35.86 s
[1]; 1.0 mg/kg
  increase on the bleeding time compared with the saline group: 122.58%
  bleeding time (BT): 517.50 ± 38.45 s
[1]; 2.0 mg/kg
  increase on the bleeding time compared with the saline group: 174.19%
  bleeding time (BT): 637.50 ± 74.79 s
Rat thrombin
  Ki: 15.2 ± 0.18 nM
trypsin; 3 h
  remaining at 3 h, 0.79 mM: 39%
trypsin; 5 h
  remaining at 5 h, 0.79 mM: 23%
[2]
  binding to surface-immobilized HSA (SPR): weakly bind to HSA
IVC thrombosis; 0.27 mg/kg (0.1 μmol/kg), 300 min after administration
  Weight of wet thrombosis: 1.7 ± 0.2 mg
IVC thrombosis; 0.81 mg/kg (0.3 μmol/kg), 300 min after administration
  Weight of wet thrombosis: 0 mg
IVC thrombosis; 1.61 mg/kg (0.6 μmol/kg), 300 min after administration
  Weight of wet thrombosis: 0 mg
IVC thrombosis; 2.69 mg/kg (1.0 μmol/kg), 20 min after administration
  Weight of wet thrombosis: 1.3 ± 1.8 mg
IVC thrombosis; 2.69 mg/kg (1.0 μmol/kg), 300 min after administration
  Weight of wet thrombosis: 0 mg
[3]
  binding to HSA by intrinsic fluorescence quenching: dose-dependent fluorescence quenching within the range of 2.5 ~ 16 μM
Rat blood; 1.0 mg/kg peptide S2
  anticoagulant activity (CT) compared with references: superior to the 8 mg/kg hirulog-1 and 200 IU/kg heparin
Rat blood; 30 min after administration
  coagulation time (CT) of rat blood: significantly prolong
Rat plasma; after injection via tail vein, Fig. 1D
  APTT of rat plasma, time course: increased in the first 4 h, and then decreased
Rat plasma; rat plasma after peptide administration
  duration of antithrombotic activity (APTT): more than 8 h
